Assay: Stability evaluation of lotion (appearance and smell after storage)
Type: physicochemical
Conditions: 50° C., one month
Protocol: For L-lysyl-β-alanine hydrochloride (Example 2), L-lysine (Comparative Example 6), and β-alanine (Comparative Example 7), the following external composition for skin was prepared, and the stability thereof was evaluated.
50 g each of Example 2, Comparative Example 6 and
Comparative Example 7 was placed in a 50 ml screw tube and capped. After storing them in a 50° C. incubator for one month, changes in appearance and smell were judged according to the following criteria.

## NCCCC[C@H](N)C(=O)NCCC(=O)O [L-lysyl-β-alanine]
  stability in appearance (in words): excellently stable
  stability in smell (in words): excellently stable

Source: US20120157388A1, “EXTERNAL COMPOSITION FOR SKIN” (Shiseido Company, Ltd., priority 2007, published 2012)
